Laboratory results taken from patent publication US4231928A, “Antibacterial agents” (priority 1979, dated 1980).
≈ marks a conversion by molar mass, not a printed value. Read-outs that look alike come from different tables or passages of the source.

Key:
Assay type in all cases: cell-based
E. cloacae = assay: Serial twofold agar dilution (Mueller-Hinton agar), E. cloacae; settings: Enterobacter cloacae
Method: (§1) The Minimum Inhibitory Concentrations (MIC) for sodium 6-[D-(-)-α-phenyl-α-(7-hydroxy-4-oxo-4H-pyrimido[1,2-b]pyridazin-3-ylcarboxamido)acetamido]penicillanate (BB-P598) and sulbenicillin were determined by the serial twofold agar dilution method using Steers' apparatus on Mueller-Hinton agar plates against 31 test organisms for the primary screening (Table 1) and also against 61 strains of Pseudomonas aeruginosa for the secondary evaluation (Table 2).
(§2) Minimum Inhibitory Concentrations (MIC) for sodium 6-[D-(-)-α-phenyl-α-(7-hydroxy-4-oxo-4H-pyrimido[1,2-b]pyridazin-3-ylcarboxamido)acetamido]pencillanate (BB-P598), sodium 6-[D-(-)-α-(4-hydroxyphenyl)-α-(7-hydroxy-4-oxo-4H-pyrimido[1,2-b]pyridazin-3-ylcarboxamido)acetamido]-penicillanate (BB-P642) and carbenicillin were determined by the serial twofold agar dilution method using Steers' apparatus on Mueller-Hinton agar plates against 31 tests organisms (Table 8) and also against 61 strains of Pseudomonas aeruginosa (Table 9). In terms of mean % relative activity compared with carbenicillin, compounds BB-B598 and BB-P642 were 856% and 1319% as active as carbenicillin against the 61 Pseudomonas strains of Table 9.

P. morganii = assay: Serial twofold agar dilution (Mueller-Hinton agar), P. morganii; settings: Morganella morganii, P. morganii A9553, Table 1, read-out: MIC
Method: as §1, §2

S. aureus = assay: Serial twofold agar dilution (Mueller-Hinton agar), S. aureus; settings: Staphylococcus aureus
Method: as §1, §2

Pseudomonas aeruginosa = assay: Serial twofold agar dilution (Mueller-Hinton agar), P. aeruginosa; settings: Pseudomonas aeruginosa
Method: as §1, §2

S. marcescens = assay: Serial twofold agar dilution (Mueller-Hinton agar), S. marcescens; settings: Serratia marcescens, S. marcescens A20019, Table 1
Method: as §1, §2

Pseudomonas sp. = assay: Serial twofold agar dilution (Mueller-Hinton agar), Pseudomonas sp.; settings: Pseudomonas sp. A20358, Table 1, read-out: MIC
Method: as §1, §2

P. mirabilis = assay: Serial twofold agar dilution (Mueller-Hinton agar), P. mirabilis; settings: Proteus mirabilis, P. mirabilis A9900; Mueller-Hinton agar; Table 1; read-out: MIC
Method: as §1, §2

P. vulgaris = assay: Serial twofold agar dilution (Mueller-Hinton agar), P. vulgaris; settings: Proteus vulgaris, P. vulgaris A9539, Table 1, read-out: MIC
Method: as §1, §2

E. coli = assay: Serial twofold agar dilution (Mueller-Hinton agar), E. coli; settings: Escherichia coli
Method: as §1, §2

Klebsiella sp. = assay: Serial twofold agar dilution (Mueller-Hinton agar), Klebsiella sp.
Method: as §1, §2

S. enteritidis = assay: Serial twofold agar dilution (Mueller-Hinton agar), S. enteritidis; settings: Salmonella enterica, S. enteritidis A9531, Table 1, read-out: MIC
Method: as §1, §2

K. pneumoniae = assay: Serial twofold agar dilution (Mueller-Hinton agar), K. pneumoniae; settings: Klebsiella pneumoniae, K. pneumoniae A9977, Table 1, read-out: MIC
Method: as §1, §2

CC1(C)S[C@@H]2[C@H](NC(=O)C(c3ccccc3)S(=O)(=O)O)C(=O)N2[C@H]1C(=O)O (stereo partly shown) [Sulbenicillin, reference compound]
MIC (E. cloacae; E. cloacae A9656, Table 1): 6.3 µg/mL (≈ 15.2 µM)
MIC (E. cloacae; E. cloacae A9657, Table 1): 100 µg/mL (≈ 241 µM)
MIC (E. cloacae; E. cloacae A9659, Table 1): 12.5 µg/mL (≈ 30.2 µM)
MIC (P. morganii): > 100 µg/mL
MIC (S. aureus; S. aureus BX-1633 A15097, Table 1, read-out: MIC): 12.5 µg/mL (≈ 30.2 µM)
MIC (S. aureus; S. aureus BX-1633 A20701, Table 1, read-out: MIC): 50 µg/mL (≈ 121 µM)
MIC (S. aureus; S. aureus Smith A9537, Table 1, read-out: MIC): 1.6 µg/mL (≈ 3.86 µM)
MIC (Pseudomonas aeruginosa; 61 strains of P. aeruginosa, Table 2, read-out: Geometric mean of MIC): 31.4 µg/mL (≈ 75.8 µM)
MIC (Pseudomonas aeruginosa; GN315, Pa-27 GN315 A21294, Mueller-Hinton agar, Table 2, read-out: MIC): 50 µg/mL (≈ 121 µM)
MIC (Pseudomonas aeruginosa; GN4925, Pa-45 GN4925, Mueller-Hinton agar, Table 2, read-out: MIC): 50 µg/mL (≈ 121 µM)
MIC (Pseudomonas aeruginosa; P. aeruginosa A9843, Mueller-Hinton agar, Table 1, read-out: MIC): 25 µg/mL (≈ 60.3 µM)
MIC (Pseudomonas aeruginosa; P. aeruginosa A9930, Mueller-Hinton agar, Table 1, read-out: MIC): 12.5 µg/mL (≈ 30.2 µM)
MIC (Pseudomonas aeruginosa; P. aeruginosa A15150, Mueller-Hinton agar, Table 1, read-out: MIC): 12.5 µg/mL (≈ 30.2 µM)
MIC (Pseudomonas aeruginosa; P. aeruginosa A20229, Mueller-Hinton agar, Table 1, read-out: MIC): 12.5 µg/mL (≈ 30.2 µM)
MIC (Pseudomonas aeruginosa; P. aeruginosa A20717, Mueller-Hinton agar, Table 1, read-out: MIC): 100 µg/mL (≈ 241 µM)
MIC (Pseudomonas aeruginosa; Pa-2 VA A9923, Mueller-Hinton agar, Table 2, read-out: MIC): 12.5 µg/mL (≈ 30.2 µM)
MIC (Pseudomonas aeruginosa; Pa-3 1449VA A9930, Mueller-Hinton agar, Table 2, read-out: MIC): 6.3 µg/mL (≈ 15.2 µM)
MIC (Pseudomonas aeruginosa; Pa-4 H9 D113 A21295, Mueller-Hinton agar, Table 2, read-out: MIC): 25 µg/mL (≈ 60.3 µM)
MIC (Pseudomonas aeruginosa; Pa-6 No. 5 A15194, Mueller-Hinton agar, Table 2, read-out: MIC): > 100 µg/mL
MIC (Pseudomonas aeruginosa; Pa-10 A20479, Mueller-Hinton agar, Table 2, read-out: MIC): > 100 µg/mL
MIC (Pseudomonas aeruginosa; Pa-12 A20653, Mueller-Hinton agar, Table 2, read-out: MIC): 50 µg/mL (≈ 121 µM)
MIC (Pseudomonas aeruginosa; Pa-15 A20717, Mueller-Hinton agar, Table 2, read-out: MIC): 100 µg/mL (≈ 241 µM)
MIC (Pseudomonas aeruginosa; Pa-16 #130 A20718, Mueller-Hinton agar, Table 2, read-out: MIC): 6.3 µg/mL (≈ 15.2 µM)
MIC (Pseudomonas aeruginosa; Pa-17 H6 D114, Mueller-Hinton agar, Table 2, read-out: MIC): 12.5 µg/mL (≈ 30.2 µM)
MIC (Pseudomonas aeruginosa; Pa-18 H8 D121, Mueller-Hinton agar, Table 2, read-out: MIC): 12.5 µg/mL (≈ 30.2 µM)
MIC (Pseudomonas aeruginosa; Pa-19 A20229, Mueller-Hinton agar, Table 2, read-out: MIC): 12.5 µg/mL (≈ 30.2 µM)
MIC (Pseudomonas aeruginosa; Pa-23 A20741, Mueller-Hinton agar, Table 2, read-out: MIC): 50 µg/mL (≈ 121 µM)
MIC (Pseudomonas aeruginosa; Pa-24 A20896, Mueller-Hinton agar, Table 2, read-out: MIC): 100 µg/mL (≈ 241 µM)
MIC (Pseudomonas aeruginosa; Pa-25 A20897, Mueller-Hinton agar, Table 2, read-out: MIC): 12.5 µg/mL (≈ 30.2 µM)
MIC (Pseudomonas aeruginosa; Pa-26 Ps32, Mueller-Hinton agar, Table 2, read-out: MIC): 12.5 µg/mL (≈ 30.2 µM)
MIC (Pseudomonas aeruginosa; Pa-28 CPH10527/72, Mueller-Hinton agar, Table 2, read-out: MIC): 50 µg/mL (≈ 121 µM)
MIC (Pseudomonas aeruginosa; Pa-29 D122, Mueller-Hinton agar, Table 2, read-out: MIC): 25 µg/mL (≈ 60.3 µM)
MIC (Pseudomonas aeruginosa; Pa-31 A20594, Mueller-Hinton agar, Table 2, read-out: MIC): 12.5 µg/mL (≈ 30.2 µM)
MIC (Pseudomonas aeruginosa; Pa-33 A20598, Mueller-Hinton agar, Table 2, read-out: MIC): 100 µg/mL (≈ 241 µM)
MIC (Pseudomonas aeruginosa; Pa-35, Mueller-Hinton agar, Table 2, read-out: MIC): 100 µg/mL (≈ 241 µM)
MIC (Pseudomonas aeruginosa; Pa-36, Mueller-Hinton agar, Table 2, read-out: MIC): 1.6 µg/mL (≈ 3.86 µM)
MIC (Pseudomonas aeruginosa; Pa-37 A20130, Mueller-Hinton agar, Table 2, read-out: MIC): 50 µg/mL (≈ 121 µM)
MIC (Pseudomonas aeruginosa; Pa-38 A20349, Mueller-Hinton agar, Table 2, read-out: MIC): 50 µg/mL (≈ 121 µM)
MIC (Pseudomonas aeruginosa; Pa-42 A21229, Mueller-Hinton agar, Table 2, read-out: MIC): > 100 µg/mL
MIC (Pseudomonas aeruginosa; Pa-43 A21233, Mueller-Hinton agar, Table 2, read-out: MIC): 50 µg/mL (≈ 121 µM)
MIC (Pseudomonas aeruginosa; Pa-44 A21274, Mueller-Hinton agar, Table 2, read-out: MIC): 50 µg/mL (≈ 121 µM)
MIC (Pseudomonas aeruginosa; Pa-54 A20128, Mueller-Hinton agar, Table 2, read-out: MIC): 50 µg/mL (≈ 121 µM)
MIC (Pseudomonas aeruginosa; Pa-58 A20557, Mueller-Hinton agar, Table 2, read-out: MIC): 50 µg/mL (≈ 121 µM)
MIC (Pseudomonas aeruginosa; Pa-59 A20574, Mueller-Hinton agar, Table 2, read-out: MIC): 50 µg/mL (≈ 121 µM)
MIC (Pseudomonas aeruginosa; Pa-60 A20602, Mueller-Hinton agar, Table 2, read-out: MIC): 12.5 µg/mL (≈ 30.2 µM)
MIC (Pseudomonas aeruginosa; Pa-61 A20726, Mueller-Hinton agar, Table 2, read-out: MIC): 50 µg/mL (≈ 121 µM)
MIC (Pseudomonas aeruginosa; Pa-62 A21213, Mueller-Hinton agar, Table 2, read-out: MIC): > 100 µg/mL
MIC (Pseudomonas aeruginosa; Pa-67 A21509, Mueller-Hinton agar, Table 2, read-out: MIC): 50 µg/mL (≈ 121 µM)
MIC (Pseudomonas aeruginosa; Pa-68 A21510, Mueller-Hinton agar, Table 2, read-out: MIC): 50 µg/mL (≈ 121 µM)
MIC (Pseudomonas aeruginosa; Pa-69 A21587, Mueller-Hinton agar, Table 2, read-out: MIC): 50 µg/mL (≈ 121 µM)
MIC (Pseudomonas aeruginosa; Pa-70 K-Ps102 (CR-102), Mueller-Hinton agar, Table 2, read-out: MIC): 25 µg/mL (≈ 60.3 µM)
MIC (S. marcescens): 6.3 µg/mL (≈ 15.2 µM)
MIC (Pseudomonas sp.): 3.1 µg/mL (≈ 7.48 µM)
MIC (P. mirabilis): 0.8 µg/mL (≈ 1.93 µM)
MIC (P. vulgaris): 1.6 µg/mL (≈ 3.86 µM)
MIC (E. coli; E. coli Juhl A9435, Table 1): 12.5 µg/mL (≈ 30.2 µM)
MIC (E. coli; E. coli Juhl A9844, Table 1, read-out: MIC): 0.8 µg/mL (≈ 1.93 µM)
MIC (E. coli; E. coli Juhl A15119, Table 1, read-out: MIC): 3.1 µg/mL (≈ 7.48 µM)
MIC (E. coli; E. coli Juhl A20366, Table 1, read-out: MIC): > 100 µg/mL
MIC (E. coli; E. coli Juhl A20520, Table 1, read-out: MIC): 6.3 µg/mL (≈ 15.2 µM)
MIC (E. coli; E. coli Juhl A20664, Table 1, read-out: MIC): 3.1 µg/mL (≈ 7.48 µM)
MIC (E. coli; E. coli Juhl A20732, Table 1, read-out: MIC): > 100 µg/mL
MIC (E. coli; E. coli Juhl A20898, Table 1, read-out: MIC): > 100 µg/mL
MIC (E. coli; E. coli NIHJ, Table 1, read-out: MIC): 0.8 µg/mL (≈ 1.93 µM)
MIC (Klebsiella sp.): 12.5 µg/mL (≈ 30.2 µM)
MIC (S. enteritidis): 1.6 µg/mL (≈ 3.86 µM)
MIC (K. pneumoniae): 3.1 µg/mL (≈ 7.48 µM)
